From patent US20240390298A1, “CYCLOHEXYL BETA-HYDROXY ALKYL AMINES AND MEDICAL USES THEREOF” (ATROGI AB, priority 2021, published 2024) come the findings set out here.

The subject of assay [1] is L6-myotubes. The assay is described as follows: Measurement of intracellular cAMP levels in differentiated L6 cells (alpha screen cAMP kit), compared to isoproterenol. The settings on record: agonist 1×10^−5 M, 15 min; for Emax at 10 µM: Rattus norvegicus, L6, 0.25 h, read-out: Biological example 2: intracellular cAMP levels, activity compared to that of isoproterenol. It counts as cell-based. As for the experimental part:
(§1) L6-myoblasts were grown in Dulbecco's Modified Eagle's Medium (DMEM) containing 1 g/L glucose supplemented with 10% fetal bovine serum, 2 mM L-Glutamine, 50 U/mL penicillin, 50 μg/mL streptomycin and 10 mM HEPES. Cells were plated at 1×10^5 cells per mL in 24-well plates. After reaching 90% confluence the cells were grown in medium containing 2% FBS for 7 days where upon cells differentiated into myotubes.
Differentiated cells were serum-starved overnight and stimulated with an agonist, final concentration 1×10^−5 M, for 15 min in stimulation buffer (HBSS supplemented with 1% BSA, 5 mM HEPES and 1 mM IBMX, pH 7.4). The medium was aspirated and 100 μL of 95% EtOH was added to each well of the 24-well plate and cells were kept at −20° C. overnight. The EtOH was allowed to evaporate and 500 μL of lysis buffer (1% BSA, 5 mM HEPES and 0.3% Tween-20, pH 7.4) was added to each well. The plate was kept at −80° C. for 30 min and then at −20° C. until the day of detection when the samples were thawed. Intracellular cAMP levels were detected using an alpha screen cAMP kit (6760635D from Perkin Elmer). The activity for each compound is compared to that of isoproterenol.
In general terms: Cyclic AMP is a second messenger, typically raised through Gs and lowered through Gi signalling.

For assay [2], the system named is L6-myotubes. In words: Glucose uptake in differentiated L6-myotubes (3H-2-deoxyglucose), compared to isoproterenol. In kind it is cell-based. The settings on record: agonist 1×10^−5 M, 50 nM 3H-2-deoxyglucose; for Emax at 10 µM: read-out: Biological example 1: glucose uptake, activity compared to that of isoproterenol. As for the experimental part:
as §1
Differentiated L6-myotubes were serum-starved overnight in medium containing 0.5% fatty-acid free BSA and stimulated with an agonist, with a final concentration of 1×10^−5 M. After 1 h 40 min the cells were washed with warm glucose free medium or PBS twice and another portion of agonist was added to the glucose free medium. After 20 min the cells were exposed to 50 nM ^3H-2-deoxyglucose for 10 min before washed with ice cold glucose free medium or PBS three times and lysed with 0.2 M NaOH, 400 μL/well, for 1 h at 60° C. The cell lysate was mixed with 4 mL scintillation buffer (Emulsifier Safe, Perkin Elmer) and the radioactivity was detected in a β-counter (Tri-Carb 4810TR, Perkin Elmer). The activity for each compound is compared to that of isoproterenol.

Each structure is given as a SMILES string. Counter-ions that a name gives are not always drawn.

Consider `CO[C@H]1CC[C@@H](CC(C)(C)NC[C@H](O)c2cncc(F)c2)CC1` [Example 14, (R)-1-(5-Fluoropyridin-3-yl)-2-((1-((1s,4S)-4-methoxycyclohexyl)-2-methylpropan-2-yl)amino)ethan-1-ol], for which the Emax at 10 µM in the assay with L6-myotubes [1] is under 25%. The “Biological example 1: glucose uptake, activity compared to that of isoproterenol” value in the assay with L6-myotubes [2] was “+ + +”.
Consider `O[C@@H](CNC[C@H]1CC[C@H](O)CC1)c1cncc(F)c1` [Example 32, (1R,4r)-4-((((R)-2-(5-Fluoropyridin-3-yl)-2-hydroxyethyl)amino)-methyl)cyclohexan-1-ol], for which the Emax at 10 µM with L6-myotubes [1] and in the assay on L6-myotubes [2] was under 25% each time.
For `CS(=O)(=O)N[C@H]1CC[C@H](CNC[C@H](O)c2cncc(F)c2)CC1` [Example 72, N-((1R,4r)-4-((((R)-2-(5-Fluoropyridin-3-yl)-2-hydroxyethyl)amino)methyl)-cyclohexyl)methanesulfonamide], the Emax at 10 µM with L6-myotubes [1] is under 25%; in the assay with L6-myotubes [2], 25 to 50%.
`CO[C@H]1CC[C@H](CCC(C)(C)NC[C@H](O)c2cccc(F)c2)CC1.Cl` [Example 21, (R)-1-(3-Fluorophenyl)-2-((4-((1r,4S)-4-methoxycyclohexyl)-2-methyl-butan-2-yl)amino)ethan-1-ol hydrochloride]: the Emax at 10 µM with L6-myotubes [1] is under 25%. In addition, the “Biological example 1: glucose uptake, activity compared to that of isoproterenol” value in the assay on L6-myotubes [2] is on record as “+ +”.
With `O[C@@H](CNCCC[C@H]1CC[C@@H](OCc2ccccc2)CC1)c1cncc(F)c1` [Example 56, (R)-2-((3-((1s,4R)-4-(Benzyloxy)cyclohexyl)propyl)amino)-1-(5-fluoro-pyridin-3-yl)ethan-1-ol], in the assay on L6-myotubes [1], the Emax at 10 µM is under 25%. Besides, the “Biological example 1: glucose uptake, activity compared to that of isoproterenol” value with L6-myotubes [2] is reported as “+ +”.
With `CC(C)(NC[C@H](O)c1cccc(F)c1)[C@H]1CC[C@@H](C(=O)O)CC1` [Example 98, (1S,4s)-4-(2-(((R)-2-(3-Fluorophenyl)-2-hydroxyethyl)amino)propan-2-yl)-cyclohexane-1-carboxylic acid], the Emax at 10 µM with L6-myotubes [1] was under 25%; with L6-myotubes [2], 25 to 50%.
As for `CO[C@H]1CC[C@@H](CNC[C@H](O)c2cccc(F)c2)CC1` [Example 1, (R)-1-(3-Fluorophenyl)-2-((((1s,4S)-4-methoxycyclohexyl)-methyl)amino)ethan-1-ol], the Emax at 10 µM with L6-myotubes [1] is under 25%. Also, the “Biological example 1: glucose uptake, activity compared to that of isoproterenol” value in the assay on L6-myotubes [2] is reported as “+ +”.
On the same counts, the results for `CC(C)(NC[C@H](O)c1cccc(F)c1)[C@H]1CC[C@@H](O)CC1` [Example 34, (1S,4s)-4-(2-(((R)-2-(3-Fluorophenyl)-2-hydroxyethyl)amino)propan-2-yl)cyclohexan-1-ol] are under 25% and “+ +”.
On to `CC(C)(NC[C@H](O)c1cncc(F)c1)[C@H]1CC[C@H](N)CC1` [Example 79], for which the Emax at 10 µM in the assay with L6-myotubes [1] and in the assay with L6-myotubes [2] was under 25% each time.
In the case of `CO[C@H]1CC[C@H](CC(C)(C)NC[C@H](O)c2cccc(F)c2)CC1` [Example 15, (R)-1-(3-Fluorophenyl)-2-((1-((1r,4R)-4-methoxycyclohexyl)-2-methyl-propan-2-yl)amino)ethan-1-ol], the Emax at 10 µM with L6-myotubes [1] is under 25%. Moreover, the “Biological example 1: glucose uptake, activity compared to that of isoproterenol” value in the assay on L6-myotubes [2] is “+ + +”.
On the same counts, the results for `CC(C)(C[C@H]1CC[C@@H](N)CC1)NC[C@H](O)c1cncc(F)c1` [Example 175, (R)-2-((1-((1s,4S)-4-Aminocyclohexyl)-2-methylpropan-2-yl)amino)-1-(5-fluoropyridin-3-yl)ethan-1-ol] are under 25% and “+ +”.
On to `CC(C)(C[C@H]1CC[C@H](S(N)(=O)=O)CC1)NC[C@H](O)c1cccc(F)c1.Cl` [Example 194, (1R,4r)-4-(2-(((R)-2-(3-Fluorophenyl)-2-hydroxyethyl)amino)-2-methylpropyl)cyclohexane-1-sulfonamide hydrochloride], for which, in the assay with L6-myotubes [1], the Emax at 10 µM is under 25%. The “Biological example 1: glucose uptake, activity compared to that of isoproterenol” value in the assay with L6-myotubes [2] is recorded as “+ + +”.
Turning to `CC(C)(C[C@H]1CC[C@@H](N)CC1)NC[C@H](O)c1cccc(F)c1` [Example 163, (R)-2-((1-((1s,4S)-4-Aminocyclohexyl)-2-methylpropan-2-yl)amino)-1-(3-fluorophenyl)ethan-1-ol], in the assay with L6-myotubes [1], the Emax at 10 µM is under 25%. Besides, the “Biological example 1: glucose uptake, activity compared to that of isoproterenol” value with L6-myotubes [2] is listed as “+ + +”.
On the same counts, the results for `CC(C)(C[C@H]1CC[C@@H](S(N)(=O)=O)CC1)NC[C@H](O)c1cccc(F)c1.Cl` [Example 196, (1S,4s)-4-(2-(((R)-2-(3-Fluorophenyl)-2-hydroxyethyl)amino)-2-methylpropyl)cyclohexane-1-sulfonamide hydrochloride] are under 25% and “+ + +”.
On the same counts, the results for `CC(C)(NC[C@H](O)c1cccc(F)c1)[C@H]1CC[C@@H](OCC(=O)O)CC1` [Example 128, 2-(((1S,4s)-4-(2-(((R)-2-(3-Fluorophenyl)-2-hydroxyethyl)amino)propan-2-yl)cyclohexyl)oxy)acetic acid] are under 25% and “+ +”.
As to `CC(C)(C[C@H]1CC[C@H](NS(C)(=O)=O)CC1)NC[C@H](O)c1cccc(C(F)(F)F)n1` [Example 152, N-((1S,4r)-4-(2-(((S)-2-Hydroxy-2-(6-(trifluoromethyl)pyridin-2-yl)-ethyl)amino)-2-methylpropyl)cyclohexyl)methanesulfonamide dihydrochloride], the Emax at 10 µM with L6-myotubes [1] was under 25%. Further, the “Biological example 1: glucose uptake, activity compared to that of isoproterenol” value in the assay with L6-myotubes [2] is given as “+ +”.
Take `CC(C)(C[C@H]1CC[C@H](NC(=O)C(F)(F)F)CC1)NC[C@H](O)c1cccc(F)c1.Cl` [Example 157, 2,2,2-Trifluoro-N-((1R,4r)-4-(2-(((R)-2-(3-fluorophenyl)-2-hydroxyethyl)-amino)-2-methylpropyl)cyclohexyl)acetamide hydrochloride]: the Emax at 10 µM with L6-myotubes [1] was 25 to 50%. For the same compound, the “Biological example 1: glucose uptake, activity compared to that of isoproterenol” value in the assay on L6-myotubes [2] is on record as “+ + +”.
`CN(C)C(=O)N[C@H]1CC[C@@H](CC(C)(C)NC[C@H](O)c2cccc(F)c2)CC1` [Example 169, 3-((1S,4s)-4-(2-(((R)-2-(3-Fluorophenyl)-2-hydroxyethyl)amino)-2-methylpropyl)cyclohexyl)-1,1-dimethylurea hydrochloride]: the Emax at 10 µM with L6-myotubes [1] fell in the range of 25 to 50%. In the assay on L6-myotubes [2], the “Biological example 1: glucose uptake, activity compared to that of isoproterenol” value is recorded as “+ + +”.
Take `CC(C)(C[C@H]1CC[C@H](NC(=O)C(C)(C)C)CC1)NC[C@H](O)c1cccc(F)c1.Cl` [Example 154, N-((1R,4r)-4-(2-(((R)-2-(3-Fluorophenyl)-2-hydroxyethyl)amino)-2-methylpropyl)cyclohexyl)pivalamide hydrochloride]: the Emax at 10 µM with L6-myotubes [1] was in the range of 25 to 50%. Moreover, the “Biological example 1: glucose uptake, activity compared to that of isoproterenol” value in the assay on L6-myotubes [2] was “+ + +”.
On to `COC1CCC(CCCNC[C@H](O)c2cccc(F)c2)CC1` (stereo partly drawn) [Example 17, (R)-1-(3-Fluorophenyl)-2-((3-((1r,4S)-4-methoxycyclohexyl)propyl)-amino)ethan-1-ol], for which the Emax at 10 µM in the assay with L6-myotubes [1] is under 25%; with L6-myotubes [2], 25 to 50%.
Take `CC(C)(CCC1CCC(O)CC1)NC[C@H](O)c1ccccc1F` (stereo partly drawn) [Example 62, (1S,4r)-4-(3-(((R)-2-(2-Fluorophenyl)-2-hydroxyethyl)amino)-3-methyl-butyl)cyclohexan-1-ol]: in the assay on L6-myotubes [1], the Emax at 10 µM was under 25%. In the assay with L6-myotubes [2], the “Biological example 1: glucose uptake, activity compared to that of isoproterenol” value is “+ + +”.
As for `CC(C)(C[C@H]1CC[C@H](NC(=O)C2CCC2)CC1)NC[C@H](O)c1cccc(F)c1.Cl` [Example 155, N-((1R,4r)-4-(2-(((R)-2-(3-Fluorophenyl)-2-hydroxyethyl)amino)-2-methylpropyl)cyclohexyl)cyclobutanecarboxamide hydrochloride], the “Biological example 2: intracellular cAMP levels, activity compared to that of isoproterenol” value in the assay on L6-myotubes [1] was “+ +”. Also, the “Biological example 1: glucose uptake, activity compared to that of isoproterenol” value in the assay with L6-myotubes [2] is “+ + +”.
Turning to `CO[C@H]1CC[C@H](CCNC[C@H](O)c2cncc(F)c2)CC1` [Example 12, (R)-1-(5-Fluoropyridin-3-yl)-2-((2-((1r,4R)-4-methoxycyclohexyl)ethyl)-amino)ethan-1-ol], the Emax at 10 µM in the assay with L6-myotubes [1] is under 25%. The “Biological example 1: glucose uptake, activity compared to that of isoproterenol” value in the assay on L6-myotubes [2] is on record as “+ +”.
On the same counts, the results for `CNS(=O)(=O)[C@H]1CC[C@H](CC(C)(C)NC[C@H](O)c2cncc(F)c2)CC1` [Example 191, (1R,4r)-4-(2-(((R)-2-(5-Fluoropyridin-3-yl)-2-hydroxyethyl)amino)-2-methylpropyl)-N-methylcyclohexane-1-sulfonamide dihydrochloride] are under 25% and “+ +”.
